{"source": "patent US12545944B2", "about": "“Method of detection” (priority 2017, dated 2026)", "key": {"[1]": {"conditions": "cited from earlier work"}, "[2]": {"system": "carbapenemase-producing E. coli strains", "test": "Colistin MIC by broth microdilution (BMD), CLSI/EUCAST", "type": "cell-based, Escherichia coli"}}, "data": [{"compound": "CCO", "note": "[ethanol]", "values": [{"measurement": "Solubility in water", "setting": "[1]", "value": "Miscible"}]}, {"compound": "COCCOC", "note": "[1,2-dimethoxy-ethane (glyme, DME), 1,2-dimethoxy-ethane]", "values": [{"measurement": "Solubility in water", "setting": "[1]", "value": "Miscible"}]}, {"compound": "C[S+](C)[O-]", "note": "[dimethyl sulfoxide (DMSO), dimethyl sulfoxide]", "values": [{"measurement": "Solubility in water", "setting": "[1]", "value": 25.3, "unit": "g/100 g"}]}, {"compound": "CN1CCCC1=O", "note": "[N-methyl-2-pyrrolidinone (NMP), N-methyl-2-pyrrolidinone]", "values": [{"measurement": "Solubility in water", "setting": "[1]", "value": 10, "unit": "g/100 g"}]}, {"compound": "C1CCCCC1", "note": "[cyclohexane]", "values": [{"measurement": "Solubility in water", "setting": "[1]", "value": "<0.1", "unit": "g/100 g"}]}, {"compound": "CN(C)P(N(C)C)N(C)C", "note": "[Hexamethyl-phosphorous triamide (HMPT), Hexamethylphosphorous triamide]", "values": [{"measurement": "Solubility in water", "setting": "[1]", "value": "Miscible"}]}, {"compound": "Colistin (Polymyxin E)", "values": [{"measurement": "Colistin MIC", "setting": "[2]; KPC-2 producing E. coli, N=1, mcr-1/-2 PCR negative", "value": 0.25, "unit": "µg/mL"}, {"measurement": "Colistin MIC", "setting": "[2]; KPC-3 producing E. coli, N=1, mcr-1/-2 PCR negative", "value": 0.25, "unit": "µg/mL"}, {"measurement": "Colistin MIC", "setting": "[2]; NDM-1 producing E. coli, N=1, mcr-1/-2 PCR negative", "value": 0.5, "unit": "µg/mL"}, {"measurement": "Colistin MIC", "setting": "[2]; NDM-1 producing E. coli, N=1, mcr-1 PCR positive, PRR 1.73 ± 0.23", "value": 4, "unit": "µg/mL"}, {"measurement": "Colistin MIC", "setting": "[2]; NDM-1 producing E. coli, N=1, mcr-1 PCR positive, PRR 2.34 ± 0.12", "value": 4, "unit": "µg/mL"}, {"measurement": "Colistin MIC", "setting": "[2]; NDM-1 producing E. coli, N=3, mcr-1/-2 PCR negative", "value": 0.25, "unit": "µg/mL"}, {"measurement": "Colistin MIC", "setting": "[2]; NDM-5 producing E. coli, N=2, mcr-1/-2 PCR negative", "value": 0.25, "unit": "µg/mL"}, {"measurement": "Colistin MIC", "setting": "[2]; NDM-5 producing E. coli, N=3, mcr-1/-2 PCR negative", "value": 0.5, "unit": "µg/mL"}, {"measurement": "Colistin MIC", "setting": "[2]; OXA-48 producing E. coli, N=1, mcr-1/-2 PCR negative", "value": 1, "unit": "µg/mL"}, {"measurement": "Colistin MIC", "setting": "[2]; OXA-48 producing E. coli, N=1, mcr-1 PCR positive, PRR 1.29 ± 0.63", "value": 4, "unit": "µg/mL"}, {"measurement": "Colistin MIC", "setting": "[2]; OXA-48 producing E. coli, N=26, mcr-1/-2 PCR negative", "value": 0.5, "unit": "µg/mL"}, {"measurement": "Colistin MIC", "setting": "[2]; OXA-48 producing E. coli, N=27, mcr-1/-2 PCR negative", "value": 0.25, "unit": "µg/mL"}, {"measurement": "Colistin MIC", "setting": "[2]; OXA-181 + NDM-5 producing E. coli, N=1, mcr-1/-2 PCR negative", "value": 0.25, "unit": "µg/mL"}, {"measurement": "Colistin MIC", "setting": "[2]; OXA-181 producing E. coli, N=4, mcr-1/-2 PCR negative", "value": 0.25, "unit": "µg/mL"}, {"measurement": "Colistin MIC", "setting": "[2]; OXA-204 producing E. coli, N=1, mcr-1/-2 PCR negative", "value": 0.25, "unit": "µg/mL"}, {"measurement": "Colistin MIC", "setting": "[2]; OXA-244 producing E. coli, N=1 (first line), mcr-1/-2 PCR negative", "value": 0.25, "unit": "µg/mL"}, {"measurement": "Colistin MIC", "setting": "[2]; OXA-244 producing E. coli, N=1 (second line), mcr-1/-2 PCR negative", "value": 0.5, "unit": "µg/mL"}, {"measurement": "Colistin MIC", "setting": "[2]; VIM-1 producing E. coli, N=1, mcr-1/-2 PCR negative", "value": 0.5, "unit": "µg/mL"}, {"measurement": "Colistin MIC", "setting": "[2]; VIM-4 producing E. coli, N=1, mcr-1/-2 PCR negative", "value": 0.25, "unit": "µg/mL"}, {"measurement": "MICs of colistin", "setting": "[2]; two NDM-1 and one OXA-48 producer, resistant to colistin, positive for the mcr-1 gene", "value": 4, "unit": "mg/L"}]}, {"compound": "COCCOCCOC", "note": "[diethylene glycol dimethyl ether]", "values": [{"measurement": "Solubility in water", "setting": "[1]", "value": "Miscible"}]}, {"compound": "Clc1ccccc1", "note": "[chlorobenzene]", "values": [{"measurement": "Solubility in water", "setting": "[1]", "value": 0.05, "unit": "g/100 g"}]}, {"compound": "CCCCCC", "note": "[hexane]", "values": [{"measurement": "Solubility in water", "setting": "[1]", "value": 0.014, "unit": "g/100 g"}]}, {"compound": "CCOC(C)=O", "note": "[ethyl acetate]", "values": [{"measurement": "Solubility in water", "setting": "[1]", "value": 8.7, "unit": "g/100 g"}]}, {"compound": "CC(C)O", "note": "[2-propanol]", "values": [{"measurement": "Solubility in water", "setting": "[1]", "value": "Miscible"}]}, {"compound": "OCC(O)CO", "note": "[glycerin]", "values": [{"measurement": "Solubility in water", "setting": "[1]", "value": "Miscible"}]}]}
